This is an account of results in ChEMBL document CHEMBL3272044, “Cholinergic compounds. 9. Cyclohexane analogues of deoxamuscarine and derivatives” (J Med Chem, 1977).

The species entered for the experiment is Cavia porcellus. Briefly: Activity at muscarinic receptor in guinea pig terminal ileum assessed as compound required for 50% effect relative to acetylcholine. The class given is tissue-based.

For `CC1=CC[C@@H](C[N+](C)(C)C)C1`, the Ratio was 30.

As to `C[N+](C)(C)C[C@H]1CCC[C@H](O)C1` (relative stereo), the Ratio was found to be 2900.

As to `C[C@@H]1C[C@H](C[N+](C)(C)C)C[C@@H]1O`, the Ratio came out at 500.

Take `C[N+](C)(C)C[C@H]1CCCC(=O)C1`: the Ratio is 507.

For the molecule `C[C@H]1CC[C@@H](C[N+](C)(C)C)C1`, the Ratio turned out to be 100.

Turning to `C[N+](C)(C)C[C@@H]1CC=CCC1`, the Ratio was found to be 269.

In the case of `C[C@@H]1C[C@H](C[N+](C)(C)C)C[C@H]1O`, the Ratio turned out to be 9.8.

As to `C[N+](C)(C)CC1CCCC1`, the Ratio came out at 16.

With `C[N+](C)(C)C[C@H]1CCC(=O)C1`, the Ratio amounted to 50.

As for `C[N+](C)(C)CC1CC=CC1`, the Ratio amounted to 11.

With `CC1C[C@H](C[N+](C)(C)C)CC1=O` (some centres not stated), the Ratio came out at 0.5.

`C[C@H]1C[C@H](C[N+](C)(C)C)C[C@H]1O`: the Ratio was 454.

For the molecule `C[N+](C)(C)CC1CCCCC1`, the Ratio was determined as 203.

`C[N+](C)(C)C[C@H]1CC[C@H](O)C1`: the Ratio is 221.

On to `C[C@H]1C[C@H](C[N+](C)(C)C)C[C@@H]1O`, for which the Ratio came out at 100.

Consider `C[N+](C)(C)C[C@H]1CC[C@@H](O)C1`, for which the Ratio turned out to be 3590.

Take `C[N+](C)(C)C[C@H]1CCC[C@@H](O)C1` (relative stereo): the Ratio is > 10000.
